Values joined by “and” are separate entries in the source; they are usually repeats but may differ in a detail not shown here. Identical values can stand only once. Toxic doses and inconclusive results are not listed.
System: P388 leukemia ip, CD2F1 mice, survival T/C
Assay: NCI In Vivo Anticancer Drug Screen. Data for tumor model P388 Leukemia (intraperitoneal) in CD2F1 (CDF1) mice
Details: endpoint: median survival time, higher = longer survival
Summary of the method: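 Mice carrying the transplanted tumor received test compound or vehicle. Survival was recorded in each group, and the value is the treated-group measurement divided by that of the vehicle-treated control group.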

[1] = dose: 60.0 mg/kg/injection, schedule: Q01DX005 (ip), vehicle: Klucel (hydroxypropylcellulose) (HPC)
[2] = dose: 120.0 mg/kg/injection, schedule: Q01DX005 (ip), vehicle: Klucel (hydroxypropylcellulose) (HPC)

In the case of `CC1(C)CSC(=S)SC1`, the T/C (dose: 25.0 mg/kg/injection, schedule: Q04DX002 (ip), vehicle: saline) was 100 % of control, the T/C (dose: 50.0 mg/kg/injection, schedule: Q04DX002 (ip), vehicle: saline) was 97 % of control and the T/C (dose: 100.0 mg/kg/injection, schedule: Q04DX002 (ip), vehicle: saline with Tween-80) was 110 % of control. The T/C (dose: 100.0 mg/kg/injection, schedule: Q04DX002 (ip), vehicle: saline) was 103 % of control.
In the case of `C=C(C)n1c(=O)[nH]c2ccccc21`, the T/C (dose: 50.0 mg/kg/injection, schedule: Q01DX009 (ip), vehicle: saline) was 87 % of control, the T/C (dose: 100.0 mg/kg/injection, schedule: Q01DX009 (ip), vehicle: saline) was 87 % of control and the T/C (dose: 200.0 mg/kg/injection, schedule: Q01DX009 (ip), vehicle: saline) was 89 % of control.
With `COc1ccccc1NC(=O)N(CCCl)N=O` the T/C (dose: 3.0 mg/kg/injection, schedule: Q04DX003 (ip), vehicle: saline with Tween-80) was 154 % of control, the T/C (dose: 6.0 mg/kg/injection, schedule: Q04DX003 (ip), vehicle: saline with Tween-80) was 168 % of control and the T/C (dose: 6.25 mg/kg/injection, schedule: Q01DX009 (ip), vehicle: saline with Tween-80) was 163 % of control. For the same compound, the T/C (dose: 6.25 mg/kg/injection, schedule: Q04DX003 (ip), vehicle: saline with Tween-80) was 168 % of control, the T/C (dose: 12.5 mg/kg/injection, schedule: Q01DX009 (ip), vehicle: saline with Tween-80) was 200 % of control and the T/C (dose: 12.5 mg/kg/injection, schedule: Q04DX003 (ip), vehicle: saline with Tween-80) was 190 % of control. The T/C (dose: 16.5 mg/kg/injection, schedule: Q04DX003 (ip), vehicle: saline with Tween-80) was 152 % of control, the T/C (dose: 25.0 mg/kg/injection, schedule: Q01DX009 (ip), vehicle: saline with Tween-80) was 95 % of control and the T/C (dose: 25.0 mg/kg/injection, schedule: Q04DX003 (ip), vehicle: saline with Tween-80) was 272 % of control. For the same compound, the T/C (dose: 37.5 mg/kg/injection, schedule: Q04DX003 (ip), vehicle: saline with Tween-80) was 123 % of control.
In the case of `N#CCCP(=O)(O)CCC#N`, the T/C (dose: 60.0 mg/kg/injection, schedule: Q01DX005 (ip), vehicle: saline) was 100 % of control, the T/C (dose: 120.0 mg/kg/injection, schedule: Q01DX005 (ip), vehicle: saline) was 100 % of control and the T/C (dose: 240.0 mg/kg/injection, schedule: Q01DX005 (ip), vehicle: saline) was 90 % of control.
In the case of `CC1CC(=O)NN1` (stereo not drawn), the T/C [1] was 100 % of control, the T/C [2] was 101 % of control and the T/C (dose: 240.0 mg/kg/injection, schedule: Q01DX005 (ip), vehicle: Klucel (hydroxypropylcellulose) (HPC)) was 107 % of control.
In the case of `CCCCC1(CCCCCCCCCO)OCCO1`, the T/C (dose: 100.0 mg/kg/injection, schedule: Q04DX002 (ip), vehicle: Klucel (hydroxypropylcellulose) (HPC)) was 101 % of control, the T/C (dose: 200.0 mg/kg/injection, schedule: Q04DX002 (ip), vehicle: Klucel (hydroxypropylcellulose) (HPC)) was 99 % of control and the T/C (dose: 400.0 mg/kg/injection, schedule: Q04DX002 (ip), vehicle: Klucel (hydroxypropylcellulose) (HPC)) was 100 % of control.
For `Cc1nc2c(cnn2C)c(=O)n1-c1ccccc1`, the T/C (dose: 50.0 mg/kg/injection, schedule: Q01DX005 (ip), vehicle: Klucel (hydroxypropylcellulose) (HPC)) was 96 % of control, the T/C (dose: 100.0 mg/kg/injection, schedule: Q01DX005 (ip), vehicle: Klucel (hydroxypropylcellulose) (HPC)) was 98 % of control and the T/C (dose: 200.0 mg/kg/injection, schedule: Q01DX005 (ip), vehicle: Klucel (hydroxypropylcellulose) (HPC)) was 100 % of control.
For `CCCCC1C2C(S(=O)(=O)c3ccccc3)=NOC2C=CN1C(C)=O` (stereo not drawn), the T/C (dose: 15.0 mg/kg/injection, schedule: Q01DX005 (ip), vehicle: saline with Tween-80) was 105 % of control and 109 % of control and the T/C (dose: 30.0 mg/kg/injection, schedule: Q01DX005 (ip), vehicle: saline with Tween-80) was 102 % of control and 93 % of control and 98 % of control.
In the case of `COCc1cnc2nc(N)nc(N)c2n1`, the T/C (dose: 0.39 mg/kg/injection, schedule: Q01DX009 (ip), vehicle: distilled water + Tween-80) was 99 % of control, the T/C (dose: 0.78 mg/kg/injection, schedule: Q01DX009 (ip), vehicle: distilled water + Tween-80) was 99 % of control and the T/C (dose: 1.56 mg/kg/injection, schedule: Q01DX009 (ip), vehicle: distilled water + Tween-80) was 104 % of control. For the same compound, the T/C (dose: 3.13 mg/kg/injection, schedule: Q01DX009 (ip), vehicle: distilled water + Tween-80) was 110 % of control.
For `Clc1cccc2c(SCCCCCCSc3c4ccccc4nc4c(Cl)cccc34)c3ccccc3nc12`, the T/C [1] was 92 % of control and the T/C [2] was 88 % of control.
With `CCSC(=O)c1ccc(S(=O)(=O)CC)cc1` the T/C (dose: 50.0 mg/kg/injection, schedule: Q01DX009 (ip), vehicle: Klucel (hydroxypropylcellulose) (HPC)) was 102 % of control, the T/C (dose: 100.0 mg/kg/injection, schedule: Q01DX009 (ip), vehicle: Klucel (hydroxypropylcellulose) (HPC)) was 98 % of control and the T/C (dose: 200.0 mg/kg/injection, schedule: Q01DX009 (ip), vehicle: Klucel (hydroxypropylcellulose) (HPC)) was 106 % of control. For the same compound, the T/C (dose: 400.0 mg/kg/injection, schedule: Q01DX009 (ip), vehicle: Klucel (hydroxypropylcellulose) (HPC)) was 107 % of control.
`O=[N+]([O-])c1ccc2c(NCCCCCCNc3c4ccccc4nc4cc([N+](=O)[O-])ccc34)c3ccccc3nc2c1` was tested, and the T/C (dose: 0.63 mg/kg/injection, schedule: Q01DX009 (ip), vehicle: other) was 121 % of control.
In the case of `COc1ccc(C2CC(=O)c3c(O)cc(OC4OC(CO)C(O)C(O)C4OC4OC(C)C(O)C(O)C4O)cc3O2)cc1O` (stereo not drawn), the T/C (dose: 50.0 mg/kg/injection, schedule: Q01DX005 (ip), vehicle: saline with Tween-80) was 102 % of control, the T/C (dose: 100.0 mg/kg/injection, schedule: Q01DX005 (ip), vehicle: saline with Tween-80) was 100 % of control and the T/C (dose: 200.0 mg/kg/injection, schedule: Q01DX005 (ip), vehicle: saline with Tween-80) was 92 % of control.
With `CC(=O)c1cc(Cl)ccc1OCC(O)CNc1ccc(Cl)cc1C(=O)c1ccccc1` (stereo not drawn) the T/C (dose: 60.0 mg/kg/injection, schedule: Q01DX005 (ip), vehicle: saline with Tween-80) was 90 % of control, the T/C (dose: 120.0 mg/kg/injection, schedule: Q01DX005 (ip), vehicle: saline with Tween-80) was 92 % of control and the T/C (dose: 240.0 mg/kg/injection, schedule: Q01DX005 (ip), vehicle: saline with Tween-80) was 86 % of control.
